# Molecular target: T1, human adenosine A2b receptor (Homo sapiens, UniProt P29275)
# T1 sequence (P29275 1-332): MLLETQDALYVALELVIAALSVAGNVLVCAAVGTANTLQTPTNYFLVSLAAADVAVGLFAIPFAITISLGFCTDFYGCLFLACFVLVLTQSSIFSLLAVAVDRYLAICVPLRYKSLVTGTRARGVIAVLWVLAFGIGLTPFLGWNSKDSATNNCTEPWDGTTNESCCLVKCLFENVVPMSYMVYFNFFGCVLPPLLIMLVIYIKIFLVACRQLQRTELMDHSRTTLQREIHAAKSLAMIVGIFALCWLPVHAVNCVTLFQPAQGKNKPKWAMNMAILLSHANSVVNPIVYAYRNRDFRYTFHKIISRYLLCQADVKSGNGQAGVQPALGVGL
# Assay: Cellular in vitro reporter gene test for A2b receptor activity (antagonism of NECA)
# Assay type: cell-based
# Parameters: expressed in transfected cells; host or cells: CHO-K1 (Chinese hamster ovary) with CRE-luciferase reporter
# Conditions: recombinant CHO-K1 cells, CRE-luciferase reporter, co-incubation with EC50 concentration of NECA, 3 hours
# In short: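 CHO-K1 cells expressing recombinant human A2b receptor plus a CRE-driven firefly luciferase reporter. Compounds co-incubated with NECA at its same-day EC50 concentration; luminescence read 3 hours after NECA addition. IC50 values, sometimes means of several determinations rounded to two significant figures.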
row,IC50 [nM],SMILES
1,49,"CCCCn1c(=O)n(C2(C)CC2)c(=O)c2c(C)c(Cn3nc[nH]c3=O)sc21 [Example 55, 1-Butyl-5-methyl-3-(1-methylcyclopropyl)-6-[(5-oxo-4,5-dihydro-1H-1,2,4-triaiazol-1-yl)methyl]thieno[2,3-d]pyrimidine-2,4(1H,3H)-dione]"
2,3.6,"Cc1c(CN2CCNC2=O)sc2c1c(=O)n(C1(C)CC1)c(=O)n2CCC(F)(F)F [Example 56, 5-Methyl-3-(1-methylcyclopropyl)-6-[(2-oxoimidazolidin-1-yl)methyl]-1-(3,3,3-trifluoropropyl)thieno[2,3-d]pyrimidine-2,4(1H,3H)-dione]"
3,4.4,"Cc1c(CN2CCNC2=NC#N)sc2c1c(=O)n(C1(C)CC1)c(=O)n2CCC(F)(F)F [Example 57, [1-{[5-Methyl-3-(1-methylcyclopropyl)-2,4-dioxo-1-(3,3,3-trifluoropropyl)-1,2,3,4-tetrahydrothieno[2,3-d]pyrimidin-6-yl]methyl}imidazolidin-2-ylidene]cyanamide]"
4,10,"COC(=O)N=C1NCCN1Cc1sc2c(c1C)c(=O)n(C1(C)CC1)c(=O)n2CCC(F)(F)F [Example 58, Methyl [1-{[5-methyl-3-(1-methylcyclopropyl)-2,4-dioxo-1-(3,3,3-trifluoropropyl)-1,2,3,4-tetrahydrothieno[2,3-d]pyrimidin-6-yl]methyl}imidazolidin-2-ylidene]carbamate]"
5,9.3,"Cc1c(CN2CCNC(=O)C2=O)sc2c1c(=O)n(C1(C)CC1)c(=O)n2CCC(F)(F)F [Example 59, 6-[(2,3-Dioxopiperazin-1-yl)methyl]-5-methyl-3-(1-methylcyclopropyl)-1-(3,3,3-trifluoropropyl)thieno[2,3-d]pyrimidine-2,4(1H,3H)-dione]"
6,15,"Cc1c(Cn2nc[nH]c2=O)sc2c1c(=O)n(C1(C)CC1)c(=O)n2CCC(F)(F)F [Example 60, 5-Methyl-3-(1-methylcyclopropyl)-6-[(5-oxo-4,5-dihydro-1H-1,2,4-triazol-1-yl)methyl]-1-(3,3,3-trifluoropropyl)thieno[2,3-d]pyrimidine-2,4(1H,3H)-dione]"
7,5.4,"Cc1c(CN2CCNC2=O)sc2c1c(=O)n(C1(C)CC1)c(=O)n2CC1CCC1 [Example 61, 1-(Cyclobutylmethyl)-5-methyl-3-(1-methylcyclopropyl)-6-[(2-oxoimidazolidin-1-yl)methyl]thieno[2,3-d]pyrimidine-2,4(1H,3H)-dione]"
8,65,"Cc1c(Cn2nc[nH]c2=O)sc2c1c(=O)n(C1(C)CC1)c(=O)n2CC1CCC1 [Example 62, 1-(Cyclobutylmethyl)-5-methyl-3-(1-methylcyclopropyl)-6-[(5-oxo-4,5-dihydro-1H-1,2,4-triazol-1-yl)methyl]thieno[2,3-d]pyrimidine-2,4(1H,3H)-dione]"
9,120,"Cc1c(Cn2nc[nH]c2=O)sc2c1c(=O)n(C1(C)CC1)c(=O)n2CC#N [Example 69, [5-Methyl-3-(1-methylcyclopropyl)-2,4-dioxo-6-[(5-oxo-4,5-dihydro-1H-1,2,4-triazol-1-yl)methyl]-3,4-dihydrothieno[2,3-d]pyrimidin-1(2H)-yl]acetonitrile]"
10,12,"COCCn1c(=O)n(C2(C)CC2)c(=O)c2c(C)c(CN3CCNC3=NC#N)sc21 [Example 71, [1-{[1-(2-Methoxyethyl)-5-methyl-3-(1-methylcyclopropyl)-2,4-dioxo-1,2,3,4-tetrahydrothieno[2,3-d]pyrimidin-6-yl]methyl}imidazolidine-2-ylidene]cyanamide]"
11,15,"COCCn1c(=O)n(C2(C)CC2)c(=O)c2c(C)c(CN3CCNC3=NC(=O)OC)sc21 [Example 72, Methyl [1-{[1-(2-methoxyethyl)-5-methyl-3-(1-methylcyclopropyl)-2,4-dioxo-1,2,3,4-tetrahydrothieno[2,3-d]pyrimidin-6-yl]methyl}imidazolidine-2-ylidene]carbamate]"
12,29,"COCCn1c(=O)n(C2(C)CC2)c(=O)c2c(C)c(CN3CCNC(=O)C3=O)sc21 [Example 73, 6-[(2,3-Dioxopiperazin-1-yl)methyl]-1-(2-methoxyethyl)-5-methyl-3-(1-methylcyclopropyl)thieno[2,3-d]pyrimidine-2,4(1H,3H)-dione]"
13,86,"COCCn1c(=O)n(C2(C)CC2)c(=O)c2c(C)c(Cn3nc[nH]c3=O)sc21 [Example 74, 1-(2-Methoxyethyl)-5-methyl-3-(1-methylcyclopropyl)-6-[(5-oxo-4,5-dihydro-1H-1,2,4-triazol-1-yl)methyl]thieno[2,3-d]pyrimidine-2,4(1H,3H)-dione]"
14,3.3,"Cc1c(CN2CCNC2=O)sc2c1c(=O)n(C1(C)CC1)c(=O)n2CCOC(F)(F)F [Example 75, 5-Methyl-3-(1-methylcyclopropyl)-6-[(2-oxoimidazolidin-1-yl)methyl]-1-[2-(trifluormethoxy)ethyl]thieno[2,3-d]pyrimidine-2,4(1H,3H)-dione]"
15,77,"CCOCCn1c(=O)n(C2(C)CC2)c(=O)c2c(C)c(CN3CCNC3=O)sc21 [Example 77, 1-(2-Ethoxyethyl)-5-methyl-3-(1-methylcyclopropyl)-6-[(2-oxoimidazolidin-1-yl)methyl]thieno[2,3-d]pyrimidine-2,4(1H,3H)-dione]"
16,560,"CCOCCn1c(=O)n(C2(C)CC2)c(=O)c2c(C)c(Cn3nc[nH]c3=O)sc21 [Example 78, 1-(2-Ethoxyethyl)-5-methyl-3-(1-methylcyclopropyl)-6-[(5-oxo-4,5-dihydro-1H-1,2,4-triazol-1-yl)methyl]thieno[2,3-d]pyrimidine-2,4(1H,3H)-dione]"
17,110,"Cc1c(CN2CCNC2=O)sc2c1c(=O)n(C1(C)CC1)c(=O)n2CCOC(C)C [Example 79, 1-(2-Isopropoxyethyl)-5-methyl-3-(1-methylcyclopropyl)-6-[(2-oxoimidazolidin-1-yl)methyl]thieno[2,3-d]pyrimidine-2,4(1H,3H)-dione]"
18,740,"Cc1c(Cn2nc[nH]c2=O)sc2c1c(=O)n(C1(C)CC1)c(=O)n2CCOC(C)C [Example 80, 1-(2-Isopropoxyethyl)-5-methyl-3-(1-methylcyclopropyl)-6-[(5-oxo-4,5-dihydro-H-1,2,4-triazol-1-yl)methyl]thieno[2,3-d]pyrimidine-2,4(1H,3H)-dione]"
19,39,"Cc1c(CN2CCNC2=O)sc2c1c(=O)n(C1(C)CC1)c(=O)n2C[C@H]1CCCO1 [Example 81, 5-Methyl-3-(1-methylcyclopropyl)-6-[(2-oxoimidazolidin-1-yl)methyl]-1-[(2R)-tetrahydrofuran-2-ylmethyl]thieno[2,3-d]pyrimidine-2,4(1H,3H)-dione]"
20,77,"Cc1c(CN2CCNC2=O)sc2c1c(=O)n(C1(C)CC1)c(=O)n2C[C@@H]1CCCO1 [Example 82, 5-Methyl-3-(1-methylcyclopropyl)-6-[(2-oxoimidazolidin-1-yl)methyl]-1-[(2S)-tetrahydrofuran-2-ylmethyl]thieno[2,3-d]pyrimidine-2,4(1H,3H)-dione]"
21,130,"Cc1c(Cn2nc[nH]c2=O)sc2c1c(=O)n(C1(C)CC1)c(=O)n2C[C@H]1CCCO1 [Example 83, 5-Methyl-3-(1-methylcyclopropyl)-6-[(5-oxo-4,5-dihydro-1H-1,2,4-triazol-1-yl)methyl]-1-[(2R)-tetrahydrofuran-2-ylmethyl]thieno[2,3-d]pyrimidine-2,4(1H, 3H)-dione]"
22,460,"Cc1c(Cn2nc[nH]c2=O)sc2c1c(=O)n(C1(C)CC1)c(=O)n2C[C@@H]1CCCO1 [Example 84, 5-Methyl-3-(1-methylcyclopropyl)-6-[(5-oxo-4,5-dihydro-1H-1,2,4-triazol-1-yl)methyl]-1-[(2S)-tetrahydrofuran-2-ylmethyl]thieno[2,3-d]pyrimidine-2,4(1H,3H)-dione]"
23,310,"COCCn1c(=O)n(C2(C(F)(F)F)CC2)c(=O)c2c(C)c(CN3CCNC3=O)sc21 [Example 85, 1-(2-Methoxyethyl)-5-methyl-6-[(2-oxoimidazolidin-1-yl)methyl]-3-[1-(trifluoromethyl)cyclopropyl]thieno[2,3-d]pyrimidine-2,4(1H,3H)-dione]"
24,270,"COCCn1c(=O)n(C2(C(F)(F)F)CC2)c(=O)c2c(C)c(CN3CCNC3=NC#N)sc21 [Example 86, [1-({1-(2-Methoxy ethyl)-5-methyl-2,4-dioxo-3-[1-(trifluoromethyl)cyclopropyl]-1,2,3,4-tetrahydrothieno[2,3-d]pyrimidin-6-yl}methyl)imidazolidin-2-ylidene]cyanamide]"
25,140,"COCCn1c(=O)n(C2(C(F)(F)F)CC2)c(=O)c2c(C)c(CN3CCNC3=NC(=O)OC)sc21 [Example 87, Methyl [1-({1-(2-methoxyethyl)-5-methyl-2,4-dioxo-3-[1-(trifluoromethyl)cyclopropyl]-1,2,3,4-tetrahydrothieno[2,3-d]pyrimidin-6-yl}methyl)imidazolidin-2-ylidene]carbamate]"
26,690,"COCCn1c(=O)n(C2(C(F)(F)F)CC2)c(=O)c2c(C)c(CN3CCNC(=O)C3=O)sc21 [Example 88, 6-[(2,3-Dioxopiperazin-1-yl)methyl]-1-(2-methoxyethyl)-5-methyl-3-[1-(trifluoromethyl)cyclopropyl]thieno[2,3-d]pyrimidine-2,4(1H,3H)-dione]"

# Reference: patent US20200016159A1, “N3-CYCLICALLY SUBSTITUTED THIENOURACILS AND USE THEREOF” (Bayer Aktiengesellschaft, priority 2016, published 2020)
